Among the data in US20230087118A1, “IMIDAZO[1,2-a][sequence] DERIVATIVES AND THEIR USE IN THE TREATMENT OF DISEASE” (priority 2019, published 2023) are IC50 values, retold here.

Structures are written as SMILES. Where a name gives a salt, the structure may show the parent alone.

In the first experiment the target is T1, IRAK4 (Homo sapiens, UniProt Q9NWZ3).
T1 sequence (Q9NWZ3 1-460): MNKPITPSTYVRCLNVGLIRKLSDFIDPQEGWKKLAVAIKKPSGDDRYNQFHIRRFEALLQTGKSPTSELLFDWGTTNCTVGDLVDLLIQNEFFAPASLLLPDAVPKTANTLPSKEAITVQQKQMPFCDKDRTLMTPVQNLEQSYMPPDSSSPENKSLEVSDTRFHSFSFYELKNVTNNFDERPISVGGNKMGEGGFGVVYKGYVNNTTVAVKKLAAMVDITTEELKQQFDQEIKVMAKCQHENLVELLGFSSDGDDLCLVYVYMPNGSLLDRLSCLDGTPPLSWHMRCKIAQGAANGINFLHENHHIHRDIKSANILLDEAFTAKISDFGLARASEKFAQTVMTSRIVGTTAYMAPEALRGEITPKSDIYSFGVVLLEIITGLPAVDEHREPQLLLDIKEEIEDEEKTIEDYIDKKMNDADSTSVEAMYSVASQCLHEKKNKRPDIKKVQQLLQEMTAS
Description: biochemical.
Details: not given
In the case of `CC[C@H](C)Oc1cc2nc(C34COC(C)(C3)C4)cn2cc1C(=O)Nc1cnn2cc(C)cnc12` [Example 559], the IC50 worked out at 0.0007 µM.

Regarding `CC12CC(c3cn4cc(C(=O)Nc5cnn6cccnc56)c(OC5CCC5)cc4n3)(CO1)C2` [Example 406, 7-Cyclobutoxy-2-(1-methyl-2-oxabicyclo[2.1.1]hexan-4-yl)-N-(pyrazolo[1,5-a]pyrimidin-3-yl)imidazo[1,2-a]pyridine-6-carboxamide], inhibition was half-maximal at 0.0003 µM (IC50).

In turn, `CC12CC(c3cn4cc(C(=O)Nc5cccn(C(F)F)c5=O)c(OCCF)cc4n3)(CO1)C2` [Example 438, N-(1-(difluoromethyl)-2-oxo-1,2-dihydropyridin-3-yl)-7-(2-fluoroethoxy)-2-(1-methyl-2-oxabicyclo[2.1.1]hexan-4-yl)imidazo[1,2-a]pyridine-6-carboxamide] returned an IC50 of 0.0015 µM.

`CC12CC(c3cn4cc(C(=O)Nc5ccn(C(F)(F)F)n5)c(OC5CCC5)cc4n3)(CO1)C2` [Example 521, 7-Cyclobutoxy-2-(1-methyl-2-oxabicyclo[2.1.1]hexan-4-yl)-N-(1-(trifluoromethyl)-1H-pyrazol-3-yl)imidazo[1,2-a]pyridine-6-carboxamide] registered an IC50 of 0.0118 µM.

For `CC12CC(c3cn4cc(C(=O)Nc5cccc(C(F)F)n5)nc(OC5CCC5)c4n3)(CO1)C2` [Example 345, 8-Cyclobutoxy-N-(6-(difluoromethyl)pyridin-2-yl)-2-(1-methyl-2-oxabicyclo[2.1.1]hexan-4-yl)imidazo[1,2-a]pyrazine-6-carboxamide], the IC50 stood at 0.0022 µM.

The compound `CC12CCC(c3cn4cc(C(=O)Nc5cccn6cnnc56)c(OC5CCC5)cc4n3)(CO1)C2` (stereo not drawn) [Example 540, N-([1,2,4]triazolo[4,3-a]pyridin-8-yl)-7-cyclobutoxy-2-(1-methyl-2-oxabicyclo[2.2.1]heptan-4-yl)imidazo[1,2-a]pyridine-6-carboxamide] had an IC50 of 0.0008 µM.

`CCOc1nc(C(=O)Nc2cccnc2OC)cn2cc([C@@]34CC[C@@](C)(C3)OC4)nc12` (single isomer, unassigned) [Example 605] showed an IC50 of 0.0004 µM.

As to `CC(C)Oc1c(C(=O)Nc2cccc(C(F)F)n2)cn2cc(C3CCOCC3)nc2c1F` [Example 303, N-(6-(difluoromethyl)pyridin-2-yl)-8-fluoro-7-isopropoxy-2-(tetrahydro-2H-pyran-4-yl)imidazo[1,2-a]pyridine-6-carboxamide], the IC50 stood at 0.0014 µM.

The compound `COc1cc2nc(C3CCOCC3)cn2cc1C(=O)Nc1cccn2nccc12` [Example 479, 7-Methoxy-N-(pyrazolo[1,5-a]pyridin-4-yl)-2-(tetrahydro-2H-pyran-4-yl)imidazo[1,2-a]pyridine-6-carboxamide] had an IC50 of 0.0092 µM.

The compound `CCOc1nc(C(=O)Nc2cccc(C(F)F)c2)cn2cc(C34COC(C)(C3)C4)nc12` [Example 494, N-(3-(difluoromethyl)phenyl)-8-ethoxy-2-(1-methyl-2-oxabicyclo[2.1.1]hexan-4-yl)imidazo[1,2-a]pyrazine-6-carboxamide] showed an IC50 of 0.0039 µM.

For the compound `COc1cc2nc(C3CCOCC3)cn2cc1C(=O)Nc1cccnc1OCC(F)F` [Example 196], the IC50 is 0.0091 µM.

`COc1cc2nc(C3CC34CCCCO4)cn2cc1C(=O)Nc1ccccn1` (stereo not drawn) [Example 6] came in with a concentration for half-maximal inhibition (IC50) of 0.151 µM.

Consider `CC(C)Oc1nc2nc(C34COC(C3)C4)cn2cc1C(=O)Nc1cnn2cccnc12` [Example 430, 2-(2-Oxabicyclo[2.1.1]hexan-4-yl)-7-isopropoxy-N-(pyrazolo[1,5-a]pyrimidin-3-yl)imidazo[1,2-a]pyrimidine-6-carboxamide], for which 0.0027 µM corresponded to half-maximal inhibition (IC50).

In turn, `CCOc1nc(C(=O)Nc2ccc(F)cc2OC)cn2cc(C34COC(C)(C3)C4)nc12` [Example 491, 8-Ethoxy-N-(4-fluoro-2-methoxyphenyl)-2-(1-methyl-2-oxabicyclo[2.1.1]hexan-4-yl)imidazo[1,2-a]pyrazine-6-carboxamide] yielded an IC50 of 0.0023 µM.

Take `CCOc1nc(C(=O)Nc2cccnc2OC)cn2cc(C3CCCOC3)nc12` (stereo not drawn) [Example 224]: half-maximal inhibition (IC50) was put at 0.0086 µM.

In turn, `CC(C)Oc1nc2nc(C34COC(C)(C3)C4)cn2cc1C(=O)Nc1nc(C(F)F)cs1` [Example 367, N-(4-(difluoromethyl)thiazol-2-yl)-7-isopropoxy-2-(1-methyl-2-oxabicyclo[2.1.1]hexan-4-yl)imidazo[1,2-a]pyrimidine-6-carboxamide] yielded an IC50 of 0.0079 µM.

Consider `CC12CCC(c3cn4cc(C(=O)Nc5ccn(C(F)F)n5)c(OC5CCC5)cc4n3)(CO1)C2` (stereo not drawn) [Example 418, 7-Cyclobutoxy-N-(1-(difluoromethyl)-1H-pyrazol-3-yl)-2-(1-methyl-2-oxabicyclo[2.2.1]heptan-4-yl)imidazo[1,2-a]pyridine-6-carboxamide], for which the IC50 came to 0.0021 µM.

On to `CC(C)Oc1c(C(=O)Nc2cccc(-c3cnn(C)c3)n2)cn2cc(C34COC(C)(C3)C4)nc2c1F` [Example 393, 8-Fluoro-7-isopropoxy-N-(6-(1-methyl-1H-pyrazol-4-yl)pyridin-2-yl)-2-(1-methyl-2-oxabicyclo[2.1.1]hexan-4-yl)imidazo[1,2-a]pyridine-6-carboxamide], for which the IC50 came out at 0.0001 µM.

Take `CC(C)Oc1nc(C(=O)Nc2ccnc3ccnn23)cn2cc(C34COC(C)(C3)C4)nc12` [Example 400, 8-Isopropoxy-2-(1-methyl-2-oxabicyclo[2.1.1]hexan-4-yl)-N-(pyrazolo[1,5-a]pyrimidin-7-yl)imidazo[1,2-a]pyrazine-6-carboxamide]: the IC50 worked out at 0.0136 µM.

`CC(C)Oc1nc2nc(C34CC(C)(C3)OC4(C)C)cn2cc1C(=O)Nc1cnn2cc(F)cnc12` [Example 310, N-(6-fluoropyrazolo[1,5-a]pyrimidin-3-yl)-7-isopropoxy-2-(1,3,3-trimethyl-2-oxabicyclo[2.1.1]hexan-4-yl)imidazo[1,2-a]pyrimidine-6-carboxamide] showed an IC50 of 0.001 µM.

As for `CC12CC(c3cn4cc(C(=O)Nc5cccn(C(F)F)c5=O)c(OC5CC(F)(F)C5)cc4n3)(CO1)C2` [Example 455, 7-(3,3-Difluorocyclobutoxy)-N-(1-(difluoromethyl)-2-oxo-1,2-dihydropyridin-3-yl)-2-(1-methyl-2-oxabicyclo[2.1.1]hexan-4-yl)imidazo[1,2-a]pyridine-6-carboxamide], the IC50 worked out at 0.0012 µM.

As for `Cc1cnc2c(NC(=O)c3cn4cc(C56COC(C)(C5)C6)nc4cc3O[C@H](C)C3CC3)cnn2c1` (single isomer, unassigned) [Example 657], the IC50 was determined as 0.0009 µM.

Compound `CC(C)Oc1nc2nc(C34COC(C)(C3)C4)cn2cc1C(=O)Nc1cnn2cc(C(F)F)cnc12` [Example 369, N-(6-(difluoromethyl)pyrazolo[1,5-a]pyrimidin-3-yl)-7-isopropoxy-2-(1-methyl-2-oxabicyclo[2.1.1]hexan-4-yl)imidazo[1,2-a]pyrimidine-6-carboxamide] showed an IC50 of 0.0008 µM.

Still in this experiment, the particulars now being: IRAK4 Biochemical Assay (1 mM ATP, 2 h) IC50 (μM), 1 mM ATP, 2 h, 100 pM IRAK4.
`CC(C)Oc1nc2nc(C34COC(C)(C3)C4)cn2cc1C(=O)Nc1cnn2cc(F)cnc12` [Example 398, N-(6-fluoropyrazolo[1,5-a]pyrimidin-3-yl)-7-isopropoxy-2-(1-methyl-2-oxabicyclo[2.1.1]hexan-4-yl)imidazo[1,2-a]pyrimidine-6-carboxamide] showed an IC50 of 0.0002 µM.

Regarding `CC(C)Oc1cc2nc(C34COC(C)(C3)C4)cn2cc1C(=O)Nc1cccc(C2CC2)n1` [Example 296, N-(6-cyclopropylpyridin-2-yl)-7-isopropoxy-2-(1-methyl-2-oxabicyclo[2.1.1]hexan-4-yl)imidazo[1,2-a]pyridine-6-carboxamide trifluoroacetate], the half-inhibitory concentration (IC50) came to 0.0011 µM.

`CC(C)Oc1cc2nc(C34COC(C)(C3)C4)cn2cc1C(=O)Nc1cncn(C)c1=O` [Example 261, 7-Isopropoxy-N-(1-methyl-6-oxo-1,6-dihydropyrimidin-5-yl)-2-(1-methyl-2-oxabicyclo[2.1.1]hexan-4-yl)imidazo[1,2-a]pyridine-6-carboxamide 2,2,2-trifluoroacetate]: the IC50 turned out to be 0.0047 µM.

Consider `CC(C)Oc1cc2nc(C34COC(C)(C3)C4)cn2cc1C(=O)Nc1cccc(C(F)F)n1` [Example 96, N-(6-(difluoromethyl)pyridin-2-yl)-7-isopropoxy-2-(1-methyl-2-oxabicyclo[2.1.1]hexan-4-yl)imidazo[1,2-a]pyridine-6-carboxamide], for which inhibition was half-maximal at 0.0002 µM (IC50).

As to `CC(C)Oc1cc2nc(C34COC(C)(C3)C4)cn2cc1C(=O)Nc1ccno1` [Example 317, 7-Isopropoxy-N-(isoxazol-5-yl)-2-(1-methyl-2-oxabicyclo[2.1.1]hexan-4-yl)imidazo[1,2-a]pyridine-6-carboxamide trifluoroacetate], the IC50 was found to be 0.022 µM.

Compound `CC(C)Oc1cc2nc(C34COC(C)(C3)C4)cn2cc1C(=O)Nc1nccc(C(F)F)n1` [Example 295, N-(4-(difluoromethyl)pyrimidin-2-yl)-7-isopropoxy-2-(1-methyl-2-oxabicyclo[2.1.1]hexan-4-yl)imidazo[1,2-a]pyridine-6-carboxamide trifluoroacetate] displayed an IC50 of 0.0097 µM.

`COc1cccc(NC(=O)c2cn3cc(C4CC4)nc3cc2OCC2CC3CCC2O3)n1` (stereo not drawn) [Example 478, 7-((7-Oxabicyclo[2.2.1]heptan-2-yl)methoxy)-2-cyclopropyl-N-(6-methoxypyridin-2-yl)imidazo[1,2-a]pyridine-6-carboxamide] showed an IC50 of 0.0055 µM.
